Reference: patent publication EP2532242A1, “Use of bispyridiniumalkanes for killing spores” (L'AIR LIQUIDE, SOCIETE ANONYME POUR L'ETUDE ET …, priority 2011, dated 2012)

How the values were obtained:
[1] = system: spores; settings: prior art; cited from earlier work
[2] = system: Bacillus subtilis ATCC 6633; experiment: Concentration test spores of Bacillus subtilis (method B), with and without lysozyme; type: cell-based; settings: use concentration of 0.001% (Figure 2)
Description: • fixed pipettes 1 ml; 500 µl, and 100 µl • sterile glass pipettes 10 ml • sterile spatulas • sterile Schott bottles • water bath 30°C • CSA-agar + TLSH (Tween 80 3%; lecithin 0.3%; saponin 3%, histidine 0.1%) • Bacillus subtilis ATCC 6633 stored in a) H2O or b) ethanol
Spore samples are provided commercially, sometimes as ethanolic solution (40% ethanol in water).
Germination medium: + TLSH:
The germ count of the ordered spore solution is ascertained prior to the start of the experiment by means of plating out and counting and, if appropriate, the spore suspension is diluted. On the day of the experiment, a starting germ count (SGC) is again generated from the spore suspension used. By means of spore counting under the microscope in a Helber chamber, a comparison is drawn between spores which are actually present and the number of germinating spores. The starting spore count should be ca. 1 × 10^7 CFU/ml. With the help of the malachite green coloration, adequate sporulation of the spore suspension used was verified by means of light microscopy.
Samples are taken regularly over several weeks. The experimental solutions stand in the dark at room temperature during the action times.
In each case 50 ml per solution to be investigated are pipetted into a sterile Schott bottle, inoculated with 50 µl of spore suspension and incubated at room temperature. […]

Row | Molecule | germination of spores [1] | killing of spores [1] | effect against B. subtilis ATCC 6633 [2] | time after which the effect can be detected [2]
1 | benzalkonium chloride | prevent the germination of spores | spores are not killed | – | –
2 | CCCCCCCCCC[N+](C)(C)CCCCCCCCCC.[Cl-] [didecyldimethylammonium chloride] | prevent the germination of spores | do not kill them | – | –
3 | CCCCCCCCN=c1ccn(CCCCCCCCCCn2ccc(=NCCCCCCCC)cc2)cc1.Cl.Cl [octenidine, N,N'-(1,10-decanediyldi-1[4H]-pyridinyl-4-ylidene)bis(1-octanamine) dihydrochloride] | – | – | effective | after just one day
